According to patent US20180021405A1, “NUTRITIONAL APPROACH TO THE CONTROL OF ANEMIA, DIABETES AND OTHER DISEASES OR CONDITIONS AND PREVENTION OF ASSOCIATED COMORBID STATES WITH THE USE OF ERGOTHIONEINE” (priority 2011, published 2018):

How the values were obtained:
Drosophila melanogaster = test: survival under Paraquat-induced oxidative stress; assay type: in vivo; settings: 10 mM Paraquat
Procedure: The effect of Agaricus Blazei without enrichment, with Vitamin D2 enrichment, pure Vitamin D2 and control (vehicle for the delivery) on the survival rate of Drosophila melanogaster under Paraquat-induced oxidative stress condition was tested. The study focused on the control of Paraquat induced oxidative stress/biologic death. Paraquat is a very potent oxidative stress inducing chemical and causes death in animals and plants by the toxicity of released free radicals. Paraquat (10 mM concentration) (Sigma Aldrich) was used to chemically induce oxidative stress. Paraquat is the trade name for N,N′-dimethyl-4,4′-bipyridinium dichloride, a widely used herbicide. Paraquat, a viologen, is quick-acting and non-selective, killing green plant tissue on contact. It is also toxic to humans when swallowed. This is the most standard chemical used in experimental induction of oxidative stress using the Drosophila model system. It catalyzes the formation of reactive oxygen species (ROS). Paraquat will undergo redox cycling in vivo, gets reduced by an electron donor such NADPH, before being oxidized by an electron receptor such as dioxygen to produce superoxide, a major ROS.
The following materials and methods were utilized. Vials containing 10 mM Paraquat (from Sigma Aldrich) in 5 ml of 1.2% Low melting point Agarose medium were prepared. A strip of half moist filter paper was inserted in the medium (with the wet end in). Yeast paste containing 1% concentration (w/w) of the various test materials (see above) mixed to homogeneity was prepared. Yeast paste without drug was used as control. Uniform aliquot (˜300 mg) of yeast paste with or without the test material) was applied to vials in such a way that yeast paste was on the glass surface and covered the dry end (top) of the filter paper strip. Freshly enclosed wild type isogenized Canton-S males and females were collected and starved on 1% agar medium for 5-6 hours. Four males and females were transferred to the vial containing 10 mM Paraquat in LMP agarose medium and yeast paste with +/− test material (8 flies per vial). 6 vials were used per experiment. Vials with flies were placed horizontally in a tray. The experiment was conducted at 25 degrees C. temperature. Flies were transferred once in 2 days and the number of flies surviving at each transfer was recorded.

[1] = system: Alzheimer's disease mutant fruit fly (APP over-expression); test: survival and life span in Alzheimer's disease (AD) model flies; parameters: species or system Drosophila; settings: in vivo
From the text: Type of Model (with specific Drosophila model of neurodegeneration). The targeted over/ectopic expression of APP in the brain using a UAS promoter driven APP transgene, induced by a specific GAL4 trans-driver in the brain of a Drosophila model system, was used for this Example.
The AD strain lives only for a few days after their eclosion (birth) as opposed to 65 days or more for wild type normal strains.
We determined the extension of life span in the mutant strain for each test compound. We used a specific GAL4 driver that induces the APP gene in the central brain area at high levels (see above) and results in a fully penetrant lethality within a 2-3 weeks period.

[2] = mushroom test meal, 8 g and 16 g mushroom powder; cited from earlier work
hemodialysis patients = settings: human, in vivo; cited from earlier work
[3] = system: vitamin D-deficient dialysis patients; settings: 81 patients; cited from earlier work

Compound	effect on survival under Paraquat-induced oxidative stress (words) (Drosophila melanogaster)	survival rate of AD flies relative to control [1]	bioavailability of ET from mushrooms [2]	time of ET peak in red blood cells after mushroom consumption [2] [h]	survivability under Paraquat-induced oxidative stress (Drosophila melanogaster; 1% w/w in yeast paste, over 10 days, 25 degrees C) [%+/−3%]	effect on survival under Paraquat-induced oxidative stress (words) (Drosophila melanogaster; listed as Vitamin D2)	effect on survival under Paraquat-induced oxidative stress (words) (Drosophila melanogaster; listed as Vitamin D2 in its pure form)	patients with a reduction in EPO dose after supplementation (hemodialysis patients) [%]	patients able to reach 25-D levels of 30 ng/mL or greater [3] [%]	patients requiring less EPO with supplementation [3] [%]
C=C1CC[C@H](O)C/C1=C/C=C1\CCC[C@]2(C)[C@@H]([C@H](C)CCCC(C)C)CC[C@@H]12 [Vitamin D3, cholecalciferol]	no beneficial effect	no such effect								
C[N+](C)(C)[C@@H](Cc1c[nH]c(=S)[nH]1)C(=O)[O-] [ET, L-Ergothioneine]			bioavailable	2						
C=C1CC[C@H](O)C/C1=C/C=C1\CCC[C@]2(C)[C@@H]([C@H](C)/C=C/[C@H](C)C(C)C)CC[C@@H]12 [pure Vitamin D2, Ergocalciferol]	no effect	no such effect			13	no beneficial effect	deleterious effect	64	44	57
